Data published in the supplement of paper PMC11061612.

How the values were obtained:
[1] = compound: C1CN(CCC1(C(=O)N[C@@H](CCO)C2=CC=C(C=C2)Cl)N)C3=NC=NC4=C3C=CN4 [Capivasertib]; details: max 10 µM
Outline: (§1)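 Cancer cell lines were seeded in 1536-well plates in 7.5 μl DMEM/F12 or RPMI with 10% FBS, held 24 hours at 37°C and 5% CO2, then dosed for 72 hours (final DMSO typically 0.2%). Viability was read by CellTiter-Glo 2.0 luminescence and scaled between blank-well and DMSO-well means. The single-agent IC50 comes from dose responses fitted to a two-parameter logistic curve with a non-linear mixed effects model.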

[2] = compound: C=CCn1c(=O)c2cnc(Nc3ccc(N4CCN(C)CC4)cc3)nc2n1-c1cccc(C(C)(C)O)n1 [AZD1775]; details: max 3 µM
Outline: as §1

[3] = compound: CC(=O)Nc1cccc(-n2c(=O)n(C3CC3)c(=O)c3c(Nc4ccc(I)cc4F)n(C)c(=O)c(C)c32)c1 [Trametinib]; details: max 1 µM
Outline: as §1

[4] = compound: CC(=O)c1c(C)c2cnc(Nc3ccc(N4CCNCC4)cn3)nc2n(C2CCCC2)c1=O [Palbociclib]; details: max 10 µM
Outline: as §1

[5] = compound: CC(C)n1c(=O)n(C)c2cnc3cc(F)c(-c4ccc(OCCCN5CCCCC5)nc4)cc3c21 [AZD1390]; details: max 0.3 µM
Outline: as §1

[6] = compound: CC1(C)CCC(CN2CCN(c3ccc(C(=O)NS(=O)(=O)c4ccc(NCC5CCOCC5)c([N+](=O)[O-])c4)c(Oc4cnc5[nH]ccc5c4)c3)CC2)=C(c2ccc(Cl)cc2)C1 [Venetoclax]; details: max 1 µM
Outline: as §1

[7] = compound: CC1=C(C(=CC=C1)Cl)NC(=O)C2=CN=C(S2)NC3=CC(=NC(=N3)C)N4CCN(CC4)CCO [Dasatinib]; details: max 2 µM
Outline: as §1

[8] = compound: CC1=CN2[C@@H](C1)C=NC3=CC(=C(C=C3C2=O)OC)OCCCCCOC4=C(C=C5C(=C4)N=C[C@@H]6CC(=CN6C5=O)C)OC [SG3199]; details: max 0.001 µM
Outline: as §1

[9] = compound: CCN(CCO)CCCOc1ccc2c(Nc3cc(CC(=O)Nc4cccc(F)c4)[nH]n3)ncnc2c1 [AZD2811]; details: max 1 µM
Outline: as §1

[10] = compound: CCc1c2c(nc3ccc(O)cc13)-c1cc3c(c(=O)n1C2)COC(=O)[C@]3(O)CC [SN-38]; details: max 0.3 µM
Outline: as §1

[11] = compound: CN(C)CCCOc1ccc(-c2ccc3ncc4c(c3c2)n(C2CCOCC2)c(=O)n4C)cn1 [AZD0156]; details: max 3 µM
Outline: as §1

[12] = compound: CN(CC[C@H](CSC1=CC=CC=C1)NC2=C(C=C(C=C2)S(=O)(=O)NC(=O)C3=CC=C(C=C3)N4CCC(CC4)[C@H](C5=CC=CC=C5C6=CC=C(C=C6)Cl)O)S(=O)(=O)C(F)(F)F)CCO [AZD4320]; details: max 1 µM
Outline: as §1

[13] = compound: COc1cc(Nc2ncc3c(n2)-c2ccc(Cl)cc2C(c2c(F)cccc2OC)=NC3)ccc1C(=O)O [Alisertib]; details: max 10 µM
Outline: as §1

[14] = compound: COc1cc2ncnc(Nc3ccc(F)c(Cl)c3)c2cc1OCCCN1CCOCC1 [Gefitinib]; details: max 10 µM
Outline: as §1

[15] = compound: COc1cccc(OCCCN)c1-c1cc(Nc2cnc(C#N)cn2)n[nH]1 [Prexasertib]; details: max 1 µM
Outline: as §1

[16] = compound: COc1cccc2c1C(=O)c1c(O)c3c(c(O)c1C2=O)C[C@@](O)(C(=O)CO)C[C@@H]3O[C@H]1C[C@H](N)[C@H](O)[C@H](C)O1 [Doxorubicin]; details: max 1 µM
Outline: as §1

[17] = compound: COc1nnc2ccc(N3CCC(c4ccc(OCCN5CCN(C)C(=O)[C@H]5C)cc4)CC3)nn12 [AZD5153]; details: max 1 µM
Outline: as §1

[18] = compound: CS(=O)(=O)CCNCc1ccc(-c2ccc3ncnc(Nc4ccc(OCc5cccc(F)c5)c(Cl)c4)c3c2)o1 [Lapatinib]; details: max 10 µM
Outline: as §1

[19] = compound: C[C@@H](Nc1cc(F)cc(F)c1)c1cc(C(=O)N(C)C)cc2c(=O)cc(N3CCOCC3)oc12 [AZD8186]; details: max 3 µM
Outline: as §1

[20] = compound: C[C@@H](Oc1cc(-c2cnn(C3CCNCC3)c2)cnc1N)c1c(Cl)ccc(F)c1Cl [Crizotinib]; details: max 10 µM
Outline: as §1

[21] = compound: C[C@@H](c1ccc2nccn2c1)n1nnc2ncc(-c3cnn(C)c3)nc21 [Savolitinib]; details: max 1 µM
Outline: as §1

[22] = compound: C[C@@H]1COCCN1C2=NC(=NC(=C2)C3(CC3)[S@](=N)(=O)C)C4=C5C=CNC5=NC=C4 [AZD6738]; details: max 10 µM
Outline: as §1

[23] = compound: Cc1c2c(nn1C)CSCc1cc(n(C)n1)CSc1cc(c3ccccc3c1)OCCCc1c(C(=O)O)n(C)c3c-2c(Cl)ccc13 [AZD5991]; details: max 1 µM
Outline: as §1

[24] = compound: Cc1cc2ncnn2cc1Nc1ncc2c(n1)n(C1CCOCC1)c(=O)n2C [AZD7648]; details: max 10 µM
Outline: as §1

[25] = compound: Cc1nc(-c2cn3c(n2)-c2ccc(-c4cnn(C(C)(C)C(N)=O)c4)cc2OCC3)n(C(C)C)n1 [Taselisib]; details: max 10 µM
Outline: as §1

[26] = compound: Cn1cnc2c(F)c(Nc3ccc(Br)cc3Cl)c(C(=O)NOCCO)cc21 [Selumetinib]; details: max 10 µM
Outline: as §1

[27] = compound: O=C(c1cc(Cc2n[nH]c(=O)c3ccccc23)ccc1F)N1CCN(C(=O)C2CC2)CC1 [Olaparib]; details: max 10 µM
Outline: as §1

[28] = compound: NC1(c2ccc(-c3nc4ccn5c(=O)[nH]nc5c4cc3-c3ccccc3)cc2)CCC1 [MK-2206]; details: max 10 µM
Outline: as §1

Cell Line	IC50, cell viability 72 h [1] [nM]	IC50, cell viability 72 h [2] [nM]	IC50, cell viability 72 h [3] [nM]	IC50, cell viability 72 h [4] [nM]	IC50, cell viability 72 h [5] [nM]	IC50, cell viability 72 h [6] [nM]	IC50, cell viability 72 h [7] [nM]	IC50, cell viability 72 h [8] [nM]	IC50, cell viability 72 h [9] [nM]	IC50, cell viability 72 h [10] [nM]	IC50, cell viability 72 h [11] [nM]	IC50, cell viability 72 h [12] [nM]	IC50, cell viability 72 h [13] [nM]	IC50, cell viability 72 h [14] [nM]	IC50, cell viability 72 h [15] [nM]	IC50, cell viability 72 h [16] [nM]	IC50, cell viability 72 h [17] [nM]	IC50, cell viability 72 h [18] [nM]	IC50, cell viability 72 h [19] [nM]	IC50, cell viability 72 h [20] [nM]	IC50, cell viability 72 h [21] [nM]	IC50, cell viability 72 h [22] [nM]	IC50, cell viability 72 h [23] [nM]	IC50, cell viability 72 h [24] [nM]	IC50, cell viability 72 h [25] [nM]	IC50, cell viability 72 h [26] [nM]	IC50, cell viability 72 h [27] [nM]	IC50, cell viability 72 h [28] [nM]
MS751 (Cervical Carcinoma)	> 10000	1620	> 1000	> 10000	> 300	> 1000	> 2000	> 1	> 1000	36.8	> 3000	> 1000	1130	> 10000	> 1000	> 1000	200	> 10000	> 3000	> 10000	> 1000	> 10000	222	> 10000	> 10000	> 10000	> 10000	
PANC-08-13 (Pancreatic Carcinoma)	> 10000	> 3000	> 1000	> 10000	> 300	> 1000	> 2000	> 1	> 1000	> 300	> 3000	> 1000	> 10000	> 10000	460	> 1000	350	> 10000	> 3000	> 10000	> 1000	> 10000	> 1000	> 10000	6440	> 10000	> 10000	
SU-DHL-8 (B-Cell Non-Hodgkin's Lymphoma)	> 10000	155	> 1000	> 10000	> 300	> 1000	> 2000	> 1	> 1000	3.04	> 3000	38.7	6600	> 10000	7.48	107	684	> 10000	> 3000	> 10000	> 1000	2060	144	> 10000	> 10000	> 10000	> 10000	
TC-71 (Ewing's Sarcoma)	> 10000	1310	> 1000	> 10000	> 300	> 1000	> 2000	> 1	114	2.21	> 3000	278	1030	> 10000	50.4	812	224	> 10000	> 3000	6700	> 1000	2740	> 1000	> 10000	4200	> 10000	> 10000	> 10000
TE-6 (Esophageal Squamous Cell Carcinoma)	2840	> 3000	> 1000	> 10000	> 300	> 1000	> 2000	> 1	> 1000	> 300	> 3000	> 1000	6000	1750	893	> 1000	396	3400	> 3000	> 10000	> 1000	9320	940	> 10000	245	> 10000	> 10000	6610
TOV-112D (Ovarian Carcinoma)	> 10000	1260	> 1000	> 10000	> 300	> 1000	> 2000	> 1	> 1000	8.03	> 3000	> 1000	4320	> 10000	353	262	298	> 10000	> 3000	> 10000	> 1000	6940	> 1000	> 10000	> 10000	> 10000	> 10000	
U251 (Low Grade Glioma)	> 10000	> 3000	> 1000	> 10000	> 300	> 1000	> 2000	> 1	> 1000	13.1	> 3000	> 1000	> 10000	> 10000	323	> 1000	> 1000	> 10000	> 3000	> 10000	> 1000	> 10000	> 1000	> 10000	> 10000	> 10000	> 10000	> 10000
